In ChEMBL document CHEMBL1201862, “PubChem BioAssay data set” (2004):
The source made the active and inactive calls.

Experiments:
[1] = target: Induced myeloid leukemia cell differentiation protein Mcl-1 (Homo sapiens, UniProt Q07820); format: functional
Streptococcus = experiment: Group A Streptococcus viability loss, dose response, counter-screen for streptokinase expression inhibitor project, luminescence, BacTiterGlo (AID 1915); format: functional, organism-based;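 further: potency for reduction of bacterial viability or growth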
[2] = target: Disintegrin and metalloproteinase domain-containing protein 17 (Homo sapiens, UniProt P78536); experiment: exosite inhibitors of ADAM17, dose response, biochemical (AID 743260)
Streptokinase A = target: T1, Streptokinase A (Streptococcus pyogenes serotype M1, UniProt P10520); experiment: S. pyogenes streptokinase expression inhibitors, potency, dose response, plasminogen activation absorbance, OD405 (AID 1914); format: functional, Streptococcus pyogenes M1 GAS;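 further: secreted streptokinase activity via plasminogen activation per viability signal from cell pellet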
T1 sequence (P10520 whole entry): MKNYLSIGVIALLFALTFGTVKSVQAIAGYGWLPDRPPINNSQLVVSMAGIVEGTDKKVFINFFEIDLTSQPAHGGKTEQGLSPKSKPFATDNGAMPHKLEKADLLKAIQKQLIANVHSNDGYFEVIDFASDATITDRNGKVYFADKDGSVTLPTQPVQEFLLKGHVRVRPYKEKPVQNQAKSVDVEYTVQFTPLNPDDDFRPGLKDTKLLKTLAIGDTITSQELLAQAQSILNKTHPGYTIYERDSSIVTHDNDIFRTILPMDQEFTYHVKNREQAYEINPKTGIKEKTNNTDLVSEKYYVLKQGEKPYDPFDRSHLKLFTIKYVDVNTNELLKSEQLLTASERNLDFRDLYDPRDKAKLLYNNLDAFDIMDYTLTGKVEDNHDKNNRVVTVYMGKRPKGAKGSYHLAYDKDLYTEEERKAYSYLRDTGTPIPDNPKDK

[3] = target: Long-chain-fatty-acid--AMP ligase FadD28 (Mycobacterium tuberculosis, UniProt P9WQ59); experiment: Fluorescence polarization aasay to screen for inhibitors that compete for the binding of FadD28 to a bisubstrate Measured in Biochemical System Using Plate Reader - 2147-01_Inhibitor_Dose_CherryPick_Activity.; format: functional, Mycobacterium tuberculosis H37Rv
[4] = ADAM10 protease inhibitors, dose response, selectivity assay for ADAM17 exosite inhibitor project, biochemical, FRET peptide substrate, recombinant human ADAM10 (AID 743259);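 further: ADAM10 enzyme cleaving a FRET peptide substrate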
[5] = system: Streptococcus sp. 'group A'; experiment: growth inhibition of control SK(-) GAS strain, dose response, counter-screen for streptokinase expression inhibitor project, luminescence, kanamycin, BacTiterGlo, confirmation (AID 1900); format: functional, organism-based
Genome polyprotein = Genome polyprotein (dengue virus type 2, UniProt P29990); experiment: Dengue-2 NS5 methyltransferase inhibitors, primary screen, biochemical, confirmation dose response (AID 588689); format: functional
Vero = Vero cell cytotoxicity, cytotoxicity control for flavivirus capping enzyme inhibitors (AID 588742); format: functional; conditions: Chlorocebus sabaeus
[6] = target: Tyrosyl-DNA phosphodiesterase 2 (Homo sapiens, UniProt O95551); experiment: human TDP2 enzyme inhibitors, dose response, biochemical, epi absorbance, IC50 (AID 743297)
[7] = target: T2, Histone-lysine N-methyltransferase NSD2 (Homo sapiens, UniProt O96028); format: biochemical
T2 sequence (O96028 whole entry): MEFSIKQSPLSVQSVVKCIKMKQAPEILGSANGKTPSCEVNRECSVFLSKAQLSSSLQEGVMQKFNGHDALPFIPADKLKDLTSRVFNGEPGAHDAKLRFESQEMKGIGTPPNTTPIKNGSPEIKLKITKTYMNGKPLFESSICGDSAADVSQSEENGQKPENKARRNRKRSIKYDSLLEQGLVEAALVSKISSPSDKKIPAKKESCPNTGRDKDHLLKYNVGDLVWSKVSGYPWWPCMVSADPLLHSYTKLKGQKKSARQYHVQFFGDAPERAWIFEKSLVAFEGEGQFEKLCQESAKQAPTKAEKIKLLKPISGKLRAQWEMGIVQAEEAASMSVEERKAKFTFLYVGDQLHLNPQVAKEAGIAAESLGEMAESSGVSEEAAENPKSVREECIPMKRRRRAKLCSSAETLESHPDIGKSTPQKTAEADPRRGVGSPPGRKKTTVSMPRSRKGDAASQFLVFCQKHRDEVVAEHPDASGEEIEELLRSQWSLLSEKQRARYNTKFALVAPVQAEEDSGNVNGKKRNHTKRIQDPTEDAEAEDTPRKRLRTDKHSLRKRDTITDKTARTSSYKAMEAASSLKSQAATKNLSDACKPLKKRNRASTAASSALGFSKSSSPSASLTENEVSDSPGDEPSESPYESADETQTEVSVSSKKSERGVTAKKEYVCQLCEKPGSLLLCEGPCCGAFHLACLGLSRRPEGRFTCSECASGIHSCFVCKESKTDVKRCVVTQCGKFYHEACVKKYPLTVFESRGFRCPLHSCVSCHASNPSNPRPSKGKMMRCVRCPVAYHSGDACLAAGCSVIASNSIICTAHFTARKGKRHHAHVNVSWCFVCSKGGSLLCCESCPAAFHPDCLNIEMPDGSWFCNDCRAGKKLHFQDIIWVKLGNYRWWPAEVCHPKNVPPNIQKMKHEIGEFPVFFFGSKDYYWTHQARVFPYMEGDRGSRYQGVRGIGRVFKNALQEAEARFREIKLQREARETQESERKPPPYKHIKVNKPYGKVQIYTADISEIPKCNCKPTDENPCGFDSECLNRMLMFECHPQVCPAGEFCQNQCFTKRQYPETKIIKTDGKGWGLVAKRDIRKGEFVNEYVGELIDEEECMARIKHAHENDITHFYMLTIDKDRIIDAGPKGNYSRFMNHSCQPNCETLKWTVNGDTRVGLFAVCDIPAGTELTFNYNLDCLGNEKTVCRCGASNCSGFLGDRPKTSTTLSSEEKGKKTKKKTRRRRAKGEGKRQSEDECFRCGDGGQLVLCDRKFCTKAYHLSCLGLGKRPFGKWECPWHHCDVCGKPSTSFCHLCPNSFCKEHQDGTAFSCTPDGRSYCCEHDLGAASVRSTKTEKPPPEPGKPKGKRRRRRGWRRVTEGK

[8] = YAP1 pathway inhibition via CTGF transcript levels, dose response, cell-based, DLD1 colon cancer, RT-qPCR, cherry-pick (AID 1053122); format: functional; conditions: Cancer cell lines
[9] = target: Endoplasmic reticulum aminopeptidase 1 (Homo sapiens, UniProt Q9NZ08); experiment: ERAP1 aminopeptidase inhibitors, dose response, biochemical, cherry-pick, set 2, plate reader (AID 743314)
[10] = Mycobacterium tuberculosis BioA enzyme inhibitor Measured in Biochemical System Using Plate Reader - 2163-02_Inhibitor_Dose_DryPowder_Activity.
[11] = HeLa cell cytotoxicity, dose response, cytotoxicity control, 24 h, plate reader, dry powder (AID 686928); format: functional, cell-based
cells = format: functional, cell-based
[12] = target: T3, Nuclear receptor subfamily 0 group B member 1 (Homo sapiens, UniProt P51843); format: functional, cell-based;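 further: HEK293T cells transfected with SF-1 and DAX-1 plus StAR promoter luciferase reporter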
T3 sequence (P51843 whole entry): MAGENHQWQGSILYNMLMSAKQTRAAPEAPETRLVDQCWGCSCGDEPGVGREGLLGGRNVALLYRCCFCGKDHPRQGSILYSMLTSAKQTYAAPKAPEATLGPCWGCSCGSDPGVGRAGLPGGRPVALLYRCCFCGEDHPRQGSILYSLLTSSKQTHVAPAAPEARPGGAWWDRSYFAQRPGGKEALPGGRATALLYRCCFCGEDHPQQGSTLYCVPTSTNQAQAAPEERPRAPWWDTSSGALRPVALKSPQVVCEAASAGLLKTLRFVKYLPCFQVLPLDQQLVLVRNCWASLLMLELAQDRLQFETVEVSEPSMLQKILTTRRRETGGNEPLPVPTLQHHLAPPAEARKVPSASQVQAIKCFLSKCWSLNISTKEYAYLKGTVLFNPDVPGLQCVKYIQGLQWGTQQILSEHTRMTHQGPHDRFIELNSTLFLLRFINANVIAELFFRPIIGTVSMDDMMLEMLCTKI

[13] = A Cell-Based Confirmatory Screen for Compounds that Inhibit VEEV, TC-83 (8).; format: functional
Mu-type opioid receptor = Mu-type opioid receptor (Homo sapiens, UniProt P35372); format: functional, cell-based;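 further: U2OS cells with beta-arrestin recruitment to OPRM1 by beta-gal complementation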
[14] = target: 5-hydroxytryptamine receptor 2A (Mus musculus, UniProt P35363); format: functional, cell-based;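 further: CHO-K1 cells with tagged receptor and beta-arrestin; agonist potency measured as compound-induced activation of the receptor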
[15] = control 3'UTR Renilla luciferase suppression, dose response, counter-screen for Shn3 inhibitor project, cell-based, Clone20-Shn3RL, cherry-picked (AID 624133); format: functional
[16] = target: Matrix metalloproteinase-14 (Homo sapiens, UniProt P50281); experiment: Dose Response confirmation of uHTS hits for a small molecule inhibitors of MT1-MMP activation in a fluorescence assay set 1.; format: functional
[17] = HepG2 cell cytotoxicity, dose response, cytotoxicity control for Shn3 inhibitor project, CellTiter-Glo, cherry-picked (AID 624134); format: functional, cell-based
[18] = Shn3 3'UTR reporter inhibitors, dose response, cell-based, Clone20 osteoblasts, firefly luciferase, cherry-picked (AID 624132); format: functional;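 further: firefly luciferase luminescence from reporter carrying the Shn3 3'UTR in osteoblasts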
Protein Wnt-3a = Protein Wnt-3a (Mus musculus, UniProt P27467); experiment: Wnt3a-driven reporter signaling inhibition, dose response, selectivity assay for Gli-SUFU antagonist project, Wnt-LIGHT cells, luminescence (AID 651570); format: functional; conditions: read-out: IC50_Mean;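 further: Wnt-LIGHT reporter cells stimulated with conditioned medium from Wnt3a-producing cells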
[19] = LGR2 antagonists, dose response, cell-based, HEK293, CRE-luciferase reporter, cherry pick (AID 743342); format: functional
Cytochrome P450 1A2 = target: T4, Cytochrome P450 1A2 (Homo sapiens, UniProt P05177);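 further: PubChem cytochrome P450 panel assay, CYP1A2 panel member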
T4 sequence (P05177 whole entry): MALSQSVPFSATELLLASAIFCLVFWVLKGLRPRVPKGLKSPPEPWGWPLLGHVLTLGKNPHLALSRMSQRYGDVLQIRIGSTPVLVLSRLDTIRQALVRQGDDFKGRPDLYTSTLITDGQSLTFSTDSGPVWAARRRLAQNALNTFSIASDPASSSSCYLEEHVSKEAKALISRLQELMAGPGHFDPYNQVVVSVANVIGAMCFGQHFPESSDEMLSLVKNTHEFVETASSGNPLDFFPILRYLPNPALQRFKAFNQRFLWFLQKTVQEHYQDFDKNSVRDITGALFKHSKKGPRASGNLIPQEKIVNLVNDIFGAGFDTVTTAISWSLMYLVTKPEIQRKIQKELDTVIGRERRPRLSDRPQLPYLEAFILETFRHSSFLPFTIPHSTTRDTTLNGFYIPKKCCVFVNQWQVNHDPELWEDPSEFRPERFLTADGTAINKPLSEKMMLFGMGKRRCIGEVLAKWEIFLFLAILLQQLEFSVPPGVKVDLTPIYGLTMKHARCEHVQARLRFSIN

fMet-Leu-Phe receptor = fMet-Leu-Phe receptor (Homo sapiens, UniProt P21462); experiment: FPR ligands, dose response (AID 519); format: functional
[20] = target: Acyl-protein thioesterase 2 (Homo sapiens, UniProt O95372); experiment: Late stage assay provider results from the probe development effort to identify selective inhibitors of LYPLA2: fluorescence-based biochemical dose-response assay.
Acyl-protein thioesterase 2, sequence (O95372 whole entry): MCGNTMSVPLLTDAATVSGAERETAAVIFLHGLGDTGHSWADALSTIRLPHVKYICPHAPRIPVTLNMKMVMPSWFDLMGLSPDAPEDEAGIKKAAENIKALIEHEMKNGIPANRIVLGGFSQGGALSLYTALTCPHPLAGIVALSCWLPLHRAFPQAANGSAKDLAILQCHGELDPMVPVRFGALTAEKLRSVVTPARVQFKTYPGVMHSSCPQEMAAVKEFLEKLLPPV

Protein Wnt-3a, sequence (P27467 whole entry): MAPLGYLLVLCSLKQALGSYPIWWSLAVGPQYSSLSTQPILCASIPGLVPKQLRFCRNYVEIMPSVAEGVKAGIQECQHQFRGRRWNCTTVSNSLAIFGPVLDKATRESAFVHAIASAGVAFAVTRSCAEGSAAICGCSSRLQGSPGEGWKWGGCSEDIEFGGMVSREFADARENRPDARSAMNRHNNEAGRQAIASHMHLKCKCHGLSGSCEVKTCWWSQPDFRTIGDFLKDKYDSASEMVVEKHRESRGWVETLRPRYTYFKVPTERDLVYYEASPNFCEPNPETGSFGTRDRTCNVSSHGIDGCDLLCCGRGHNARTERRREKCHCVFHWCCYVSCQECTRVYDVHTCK
5-hydroxytryptamine receptor 2A, sequence (P35363 whole entry): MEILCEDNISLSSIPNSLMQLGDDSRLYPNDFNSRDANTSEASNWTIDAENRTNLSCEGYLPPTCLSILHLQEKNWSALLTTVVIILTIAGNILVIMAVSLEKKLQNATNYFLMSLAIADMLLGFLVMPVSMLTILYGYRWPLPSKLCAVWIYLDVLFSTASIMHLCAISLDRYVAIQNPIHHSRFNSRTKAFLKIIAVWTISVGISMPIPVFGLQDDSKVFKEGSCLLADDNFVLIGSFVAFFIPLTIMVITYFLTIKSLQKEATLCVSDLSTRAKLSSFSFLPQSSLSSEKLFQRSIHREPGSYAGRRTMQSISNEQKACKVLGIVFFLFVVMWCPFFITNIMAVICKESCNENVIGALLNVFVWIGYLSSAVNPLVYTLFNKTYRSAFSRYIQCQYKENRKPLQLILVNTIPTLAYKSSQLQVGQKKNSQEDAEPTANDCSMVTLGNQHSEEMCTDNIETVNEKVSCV
Disintegrin and metalloproteinase domain-containing protein 17, sequence (P78536 whole entry, the tested form may be a part): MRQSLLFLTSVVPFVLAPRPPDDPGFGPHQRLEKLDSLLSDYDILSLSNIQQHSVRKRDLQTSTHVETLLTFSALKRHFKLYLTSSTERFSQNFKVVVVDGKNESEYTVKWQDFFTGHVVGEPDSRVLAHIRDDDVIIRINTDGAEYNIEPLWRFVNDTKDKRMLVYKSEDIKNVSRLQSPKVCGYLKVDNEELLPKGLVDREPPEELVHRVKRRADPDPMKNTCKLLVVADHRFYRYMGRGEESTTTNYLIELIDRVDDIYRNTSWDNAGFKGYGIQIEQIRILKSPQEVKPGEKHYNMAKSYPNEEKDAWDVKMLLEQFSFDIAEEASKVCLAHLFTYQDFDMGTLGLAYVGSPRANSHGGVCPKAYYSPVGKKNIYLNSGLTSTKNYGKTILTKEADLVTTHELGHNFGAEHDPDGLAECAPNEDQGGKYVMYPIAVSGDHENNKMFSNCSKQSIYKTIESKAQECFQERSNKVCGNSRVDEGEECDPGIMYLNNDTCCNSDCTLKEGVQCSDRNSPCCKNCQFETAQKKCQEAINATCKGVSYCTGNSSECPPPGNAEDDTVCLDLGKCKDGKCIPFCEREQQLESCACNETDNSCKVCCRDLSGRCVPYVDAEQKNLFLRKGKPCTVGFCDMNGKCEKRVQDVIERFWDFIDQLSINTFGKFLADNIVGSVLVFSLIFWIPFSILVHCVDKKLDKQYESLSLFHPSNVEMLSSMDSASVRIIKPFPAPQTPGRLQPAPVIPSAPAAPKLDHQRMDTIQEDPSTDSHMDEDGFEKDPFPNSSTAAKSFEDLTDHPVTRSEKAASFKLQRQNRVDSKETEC
Long-chain-fatty-acid--AMP ligase FadD28, sequence (P9WQ59 whole entry): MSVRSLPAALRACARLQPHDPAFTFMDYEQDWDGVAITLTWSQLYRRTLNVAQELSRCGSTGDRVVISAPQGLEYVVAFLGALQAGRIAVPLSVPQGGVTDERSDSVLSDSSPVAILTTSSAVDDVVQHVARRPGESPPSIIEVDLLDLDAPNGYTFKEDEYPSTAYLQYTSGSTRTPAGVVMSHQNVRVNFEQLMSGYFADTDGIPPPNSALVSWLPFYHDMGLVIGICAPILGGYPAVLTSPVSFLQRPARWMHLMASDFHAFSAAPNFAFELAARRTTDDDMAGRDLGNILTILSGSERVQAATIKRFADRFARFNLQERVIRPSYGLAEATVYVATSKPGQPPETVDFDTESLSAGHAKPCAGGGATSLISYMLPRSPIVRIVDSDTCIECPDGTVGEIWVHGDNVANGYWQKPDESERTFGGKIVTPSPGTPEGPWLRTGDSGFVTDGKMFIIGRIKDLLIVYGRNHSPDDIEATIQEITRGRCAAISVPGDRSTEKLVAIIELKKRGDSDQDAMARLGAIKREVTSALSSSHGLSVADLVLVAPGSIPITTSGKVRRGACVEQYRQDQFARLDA
Mu-type opioid receptor, sequence (P35372 whole entry): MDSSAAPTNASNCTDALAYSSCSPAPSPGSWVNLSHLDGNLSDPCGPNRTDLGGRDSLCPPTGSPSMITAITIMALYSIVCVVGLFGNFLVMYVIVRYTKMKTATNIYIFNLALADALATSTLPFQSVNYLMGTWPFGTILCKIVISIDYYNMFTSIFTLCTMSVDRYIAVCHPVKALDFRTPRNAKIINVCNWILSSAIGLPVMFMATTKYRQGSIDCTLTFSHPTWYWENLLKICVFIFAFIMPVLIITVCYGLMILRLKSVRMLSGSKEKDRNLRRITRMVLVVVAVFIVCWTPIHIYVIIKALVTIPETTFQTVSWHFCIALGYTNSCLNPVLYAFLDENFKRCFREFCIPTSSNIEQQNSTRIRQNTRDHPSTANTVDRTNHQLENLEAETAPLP
Tyrosyl-DNA phosphodiesterase 2, sequence (O95551 whole entry): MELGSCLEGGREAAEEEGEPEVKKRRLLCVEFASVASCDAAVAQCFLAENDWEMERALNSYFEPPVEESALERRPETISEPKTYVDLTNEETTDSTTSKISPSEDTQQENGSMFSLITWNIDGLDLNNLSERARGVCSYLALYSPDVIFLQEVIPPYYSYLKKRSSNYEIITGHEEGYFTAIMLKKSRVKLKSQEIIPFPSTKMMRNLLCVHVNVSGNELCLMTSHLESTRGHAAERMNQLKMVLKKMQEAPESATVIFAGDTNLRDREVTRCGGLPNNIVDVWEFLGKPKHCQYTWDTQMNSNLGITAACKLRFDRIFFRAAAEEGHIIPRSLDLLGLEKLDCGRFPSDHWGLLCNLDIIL
Endoplasmic reticulum aminopeptidase 1, sequence (Q9NZ08 whole entry): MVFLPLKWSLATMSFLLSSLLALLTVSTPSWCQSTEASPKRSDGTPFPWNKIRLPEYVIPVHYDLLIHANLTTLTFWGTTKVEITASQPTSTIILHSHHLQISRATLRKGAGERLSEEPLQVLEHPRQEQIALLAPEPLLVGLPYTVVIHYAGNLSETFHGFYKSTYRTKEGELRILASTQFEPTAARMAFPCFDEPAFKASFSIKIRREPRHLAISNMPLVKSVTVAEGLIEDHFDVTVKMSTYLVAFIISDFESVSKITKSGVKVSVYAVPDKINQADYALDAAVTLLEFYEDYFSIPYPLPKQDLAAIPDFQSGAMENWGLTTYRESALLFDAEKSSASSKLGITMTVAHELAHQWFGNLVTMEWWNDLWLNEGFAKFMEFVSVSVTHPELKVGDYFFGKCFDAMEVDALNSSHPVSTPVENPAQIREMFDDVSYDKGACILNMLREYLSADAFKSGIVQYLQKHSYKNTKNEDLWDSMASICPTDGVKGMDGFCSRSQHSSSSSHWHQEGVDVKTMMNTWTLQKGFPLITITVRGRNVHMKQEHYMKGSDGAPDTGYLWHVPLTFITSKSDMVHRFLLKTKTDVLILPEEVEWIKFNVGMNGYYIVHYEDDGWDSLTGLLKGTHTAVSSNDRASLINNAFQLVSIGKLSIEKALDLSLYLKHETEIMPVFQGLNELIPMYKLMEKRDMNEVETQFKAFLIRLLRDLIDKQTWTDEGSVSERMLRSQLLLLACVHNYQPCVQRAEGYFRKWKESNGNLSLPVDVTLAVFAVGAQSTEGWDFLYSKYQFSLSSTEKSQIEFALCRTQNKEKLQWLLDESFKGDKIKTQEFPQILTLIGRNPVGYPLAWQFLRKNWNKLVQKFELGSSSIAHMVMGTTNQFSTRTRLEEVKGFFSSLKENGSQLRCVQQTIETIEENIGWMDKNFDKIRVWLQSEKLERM
Induced myeloid leukemia cell differentiation protein Mcl-1, sequence (Q07820 whole entry): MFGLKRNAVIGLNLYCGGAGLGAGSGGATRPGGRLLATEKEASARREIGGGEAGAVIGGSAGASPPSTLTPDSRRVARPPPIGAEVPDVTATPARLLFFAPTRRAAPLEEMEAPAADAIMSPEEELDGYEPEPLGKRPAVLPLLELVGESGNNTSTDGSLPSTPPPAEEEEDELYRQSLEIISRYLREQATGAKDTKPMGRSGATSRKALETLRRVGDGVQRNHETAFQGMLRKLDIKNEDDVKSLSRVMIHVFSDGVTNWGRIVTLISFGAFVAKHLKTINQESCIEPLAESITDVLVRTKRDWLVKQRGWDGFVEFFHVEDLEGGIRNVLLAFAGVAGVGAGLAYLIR
fMet-Leu-Phe receptor, sequence (P21462 whole entry): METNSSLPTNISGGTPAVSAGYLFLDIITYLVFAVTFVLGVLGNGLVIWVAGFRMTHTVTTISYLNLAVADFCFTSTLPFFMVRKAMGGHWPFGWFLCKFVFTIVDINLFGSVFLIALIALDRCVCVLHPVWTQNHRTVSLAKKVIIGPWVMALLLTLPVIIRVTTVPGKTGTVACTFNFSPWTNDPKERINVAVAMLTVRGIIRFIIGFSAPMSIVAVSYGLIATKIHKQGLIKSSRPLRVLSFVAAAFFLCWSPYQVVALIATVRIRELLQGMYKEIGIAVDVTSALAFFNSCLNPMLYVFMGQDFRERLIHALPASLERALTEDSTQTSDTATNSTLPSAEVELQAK

With Cc1[nH]n(-c2ncc(-c3ccccc3)s2)c(=O)c1C(c1ccc(Br)cc1)C(C#N)C#N (centres undefined) the IC50 [1] was 4.67 µM (active), the EC50 (Streptococcus) was 5.75 µM (active) and the IC50 [2] was > 69.5 µM (inactive). The EC50 (Streptokinase A) was > 150 µM (not active), the AC50 [3] was 35.5 µM (active) and the IC50 [4] was 10.6 µM (inactive). For the same compound, the EC50 [5] was 3.39 µM (active) and the IC50 (Genome polyprotein) was 22.3 µM (active).
In the case of O=C1C=C(Nc2cccnc2)c2ccccc2C1=O, the CC50 (Vero) was 12.1 µM (active), the IC50 [6] was 4.03 µM (active) and the AC50 [7] was 3.7 µM (active).
For O=C(c1cccc(F)c1)N1CCCCN2[C@@H](CO)[C@H](c3ccc(C#CC4(O)CCCC4)cc3)[C@@H]2C1, the AC50 [8] was 1.16 µM (active).
With Cc1cc(=O)oc2c(CN3CCN(CCO)CC3)c(O)ccc12 the AC50 [9] was 9.03 µM (active).
For O=C(Nc1cccc(Cl)c1)N1CCN(c2ccccc2)CC1, the AC50 [10] was 11 µM (active).
In the case of COc1ccc(-n2cnc(=O)c3ccccc32)cc1Cl, the AC50 [11] was > 160 µM (inactive).
For CN1OC[C@@H]2CN[C@H](c3ccc(-c4cccc(F)c4)cc3)C[C@@H]21, the IC50 (cells) was > 67.5 µM (inactive) and the IC50 [12] was > 67.5 µM (inactive).
With CNCCCN(C)Cc1nc2ccc([N+](=O)[O-])cc2c(=O)n1-c1ccccc1 the IC50 [13] was < 0.5 µM (active).
With Cc1cccc(C)c1-n1nnnc1C(C1CC1)N1CCN(C/C=C/c2ccccc2)CC1 (centres undefined) the EC50 (Mu-type opioid receptor) was 92.6 µM (inactive) and the EC50 [14] was 0.94 µM (active).
With CNc1ccccc1C(C)(C)c1cc(-c2cccc(Br)c2)no1 the AC50 [15] was 9.45 µM (active), the IC50 [16] was > 80 µM (inactive) and the AC50 [17] was 44.5 µM (active). For the same compound, the AC50 [18] was 2 µM (active) and the IC50 (Protein Wnt-3a) was 1.8 µM (active).
In the case of C[C@H](CO)N1C[C@H](C)[C@H](CN(C)C(=O)Nc2ccc(F)cc2)OCCCC[C@H](C)Oc2ccc(NC(=O)NC3CCCCC3)cc2C1=O, the AC50 [19] was 8.05 µM (active).
For Cc1nn2c(O)c(C#N)c(-c3ccccc3)nc2c1-c1ccccc1, the AC50 (Cytochrome P450 1A2) was 20 µM (inconclusive) and the Ki (fMet-Leu-Phe receptor) was > 66.7 µM (inactive).
In the case of O=C(CN1CCN(C(=O)c2ccco2)CC1)Nc1cc(C(F)(F)F)ccc1Cl, the IC50 [20] was > 10 µM (inactive).
